Data taken from patent publication US11465987B2, “Compounds for treatment of cancer” (ONCTERNAL THERAPEUTICS, INC., priority 2012, dated 2022).
Read-outs that look alike come from different tables or passages of the source.

Experiments:
[1] = tested on: PC-3 human prostate cancer cell line; assay: cells; settings: Homo sapiens
Source text: (§1) Cells were stained with SRB solution.

[2] = tested on: LNCaP human prostate cancer cell line; assay: Cytotoxicity (SRB) assay, LNCaP; assay type: cell-based; settings: Homo sapiens, LNCaP
Source text: as §1

[3] = tested on: PPC-1 human prostate cancer cell line; assay: Cytotoxicity (SRB) assay, PPC-1; assay type: cell-based; settings: Homo sapiens
Source text: as §1

[4] = tested on: melanoma and prostate cancer cell lines; assay: Antiproliferative activity summarised over the cell line panel (range or average); assay type: cell-based; settings: read-out: IC50 range against prostate cancer cells, range over prostate cancer cell lines
[5] = tested on: tubulin (colchicine, vinblastine and paclitaxel binding sites); assay: MS competition binding assay; settings: competitive mass binding assay
Source text: Each reaction was run in triplicate.

PC-3_TxR xenograft = assay: In vivo PC-3/TxR xenograft; settings: PC-3/TxR mice; 17ya […], 55 30 mg/kg
CYP enzymes = assay: CYP enzyme inhibition assays
[6] = Pharmacokinetic study in ICR mice; settings: Mouse PK
[7] = Permeability (drug-like properties)
[8] = Pharmacokinetic study in beagle dogs; settings: Dog PK, PO 5 mg/kg
[9] = tested on: confluent HUVEC monolayers; assay: Endothelial monolayer permeability assay; settings: FITC-dextran leakage, 1, 2, 4 h
[10] = Pharmacokinetic study in Sprague-Dawley rats; settings: Rat PK, PO 10 mg/kg
[11] = tested on: B16-F1 mouse melanoma cell line; assay: Cytotoxicity (SRB) assay, B16-F1; assay type: cell-based; settings: Mus musculus
[12] = tested on: A375 human melanoma cell line; assay: Cytotoxicity (SRB) assay, A375; assay type: cell-based; settings: Homo sapiens
[13] = tested on: WM-164 human melanoma cell line; assay: Cytotoxicity (SRB) assay, WM-164; assay type: cell-based; settings: Homo sapiens, n = 3, read-out: IC50 ± SEM, WM-164
[14] = tested on: DU 145 human prostate cancer cell line; assay: Cytotoxicity (SRB) assay, DU 145; assay type: cell-based; settings: Homo sapiens
Source text: as §1

[15] = tested on: OVCAR-8 human ovarian cell line; assay: Cytotoxicity (SRB) assay, OVCAR-8; assay type: cell-based; settings: Table 14B, parental cell line, read-out: IC50 ± SEM, OVCAR-8
MES-SA cells = assay: Growth inhibition (SRB) assay, MES-SA; assay type: cell-based; settings: Homo sapiens
MES-SA/DX5 cells = assay: Growth inhibition (SRB) assay, MES-SA/Dx5; assay type: cell-based; settings: Homo sapiens, MES-SA/Dx5
[16] = tested on: MDA-MB-435 parental nonresistant melanoma cells; assay: Cytotoxicity (SRB) assay, MDA-MB-435; assay type: cell-based; settings: Homo sapiens
[17] = tested on: MDA-MB-435/LCCMDR1 multidrug-resistant melanoma cells; assay: Cytotoxicity (SRB) assay, MDA-MB-435/LCCMDR1; assay type: cell-based
[18] = Rotarod test (in vivo neurotoxicity); design: species or system mouse; settings: ICR mice, i.p. daily; 1h 5 or 15 mg/kg, vinblastine 0.5 mg/kg
Procedure: ICR mice received training three times a day for two days to enable them to stay on the rotating rod for >120 seconds at 12 rpm. Mice were then randomized by the length of time that they could stay on the rotating rod and divided into 7-8 mice per group. […] The rotarod test was performed twice a week. […] The rod speed was increased from […] to 40 rpm over a period of 5 min. Performance was measured as the length of time that a mouse could stay on the rotating rod.

[19] = tested on: A375MA2 melanoma cell line; assay: Cytotoxicity assay, A375MA2; assay type: cell-based; settings: Table 14B, n = 3; read-out: IC50 ± SEM, A375MA2
HEK293-pcDNA3.1 cells = assay: Cytotoxicity assay, HEK293-pcDNA3.1 (parental line of the MRP/BCRP sublines); assay type: cell-based; settings: Table 14B; parental cell line; read-out: IC50 ± SEM, HEK293-pcDNA3.1
PC-3 xenograft = assay: In vivo PC-3 prostate tumor xenograft; settings: PC-3, 0.5 mg/kg q2d, day 22
BCRP resistant cell line = assay: Cytotoxicity in BCRP-mediated resistant cell line; settings: read-out: IC50 ± SEM, HEK293-482R2
[20] = read-out: IC50 PC-3, SRB assay, prostate cancer PC-3
[21] = SRB assay, prostate cancer LNCaP, read-out: IC50 LNCaP
[22] = PPC-1, SRB assay, prostate cancer PPC-1, read-out: IC50 PPC-1

Structure (SMILES): COc1cc(C(=O)c2csc(Nc3ccc4[nH]ccc4c3)n2)cc(OC)c1OC [compound 55, (2-(1H-INDOL-5-YLAMINO)THIAZOL-4-YL)(3,4,5-TRIMETHOXYPHENYL)METHANONE]
- IC50 ([1]; 96 h, read-out: Cytotoxicity IC50, PC-3, Table 15, mean ± SD, 96 h treatment, N = 3): 16 ± 1.5 nM
- IC50 [1, 20]: 12 ± 1 nM
- IC50 ([1]; read-out: IC50 in PC3, Table 16B): 28 nM
- IC50 [2, 21]: 13 ± 1 nM
- IC50 [3, 22]: 15 ± 1 nM
- IC50 [4]: 7.5 to 24.1 nM
- competition for tubulin binding sites in words [5]: competed effectively with colchicine
- body weight in words (PC-3_TxR xenograft): gaining weight
- CYP enzyme inhibition in words (CYP enzymes): high IC50 values in micromolar range
- t1/2 ([6]; IV 10 mg/kg): 46 min
- F ([6]; PO 20 mg/kg): 34%
- t1/2 ([6]; PO 20 mg/kg): 126 min
- permeability in words [7]: more than adequate permeability values
- F [8]: 36%
- permeability of endothelial cell monolayer in words [9]: increased permeability
- F [10]: 24%
- t1/2 [10]: 350 ± 214 min

Structure (SMILES): CC[C@]1(O)C[C@@H]2CN(CCc3c([nH]c4ccccc34)[C@@](C(=O)OC)(c3cc4c(cc3OC)N(C)[C@H]3[C@@](O)(C(=O)OC)[C@H](OC(C)=O)[C@]5(CC)C=CCN6CC[C@]43[C@@H]65)C2)C1 [vinblastine, Vinblastine, reference compound]
- IC50 ([11]; B16-F1, SRB assay, mouse melanoma B16-F1, read-out: IC50 B16-F1): 4.7 nM
- IC50 ([11]; B16-F1, Table 14A, n = 3, read-out: IC50 ± SEM, B16-F1 (converted)): 4.7 ± 0.7 nM
- IC50 ([11]; B16-F1, Table 14B, n = 3, read-out: IC50 ± SEM, B16-F1 (converted)): 5 ± 1 nM
- IC50 ([11]; B16-F1, Table 21, n = 3, read-out: IC50 ± SEM, B16-F1 (converted)): 4.7 ± 0.7 nM
- IC50 ([12]; A-375, SRB assay, human melanoma A375, read-out: IC50 A375): 1 nM
- IC50 ([12]; A-375, Table 14B, n = 3, read-out: IC50 ± SEM, A375 (converted)): 1 ± 0.1 nM
- IC50 ([13]; WM164, Table 14A): 0.6 ± 0.1 nM
- IC50 ([13]; WM164, Table 14B): 0.6 ± 0.1 nM
- IC50 ([14]; DU-145, SRB assay, prostate cancer DU 145, read-out: IC50 DU 145): 1.8 nM
- IC50 ([14]; DU-145, Table 7, read-out: IC50, DU-145): 2.6 ± 1 nM
- IC50 ([14]; DU-145, Table 21, n = 3, read-out: IC50 ± SEM, Du-145): 1.8 ± 1.1 nM
- IC50 ([1]; read-out: IC50, PC-3, Table 7): 1.4 ± 0.3 nM
- IC50 [1, 20]: 2.1 nM
- IC50 ([1]; read-out: IC50 ± SEM, PC-3, Table 21, n = 3): 2.1 ± 0.2 nM
- IC50 ([2]; Table 7, read-out: IC50, LNCaP): 3.4 ± 0.9 nM
- IC50 [15]: 2 ± 0.1 nM
- IC50 (MES-SA cells; SRB assay): 1.4 nM
- IC50 (MES-SA cells; Table 7, parental line): 2.3 ± 0.8 nM
- IC50 (MES-SA/DX5 cells; SRB assay): 16 nM
- IC50 (MES-SA/DX5 cells; Table 7, P-gp over-expressed): 45.7 ± 5.3 nM
- IC50 ([16]; Table 14A, sensitive parent cell line, read-out: IC50 ± SEM, MDA-MB-435 (converted)): 0.4 ± 0.1 nM
- IC50 ([16]; read-out: IC50 nonresistant melanoma cell line): 0.5 to 10 nM
- IC50 ([17]; Homo sapiens, MDA-MB-435/LCCMDR1, read-out: IC50 MDR melanoma cell line): 277 to 658 nM
- P-gp substrate / multidrug resistance in words ([17]; MDR melanoma line vs sensitive parent line): substrates for P-glycoprotein (P-gp)
- competition for tubulin binding sites in words [5]: did not inhibit the colchicine-tubulin binding
- rotarod performance in words [18]: gradually reduced the time
- IC50 [19]: 1 ± 0.2 nM
- IC50 (HEK293-pcDNA3.1 cells): 5 ± 0.1 nM
- % T/C (PC-3 xenograft): 29%
- IC50 (BCRP resistant cell line): 25 ± 1 nM
